Assay results reported in patent US4937232A, “Inhibition of protein kinase C by long-chain bases” (priority 1988, dated 1990).
Like-named read-outs stand apart in the source and are kept apart here.

Tests used:
human neutrophils = assay: Phagocytosis of opsonized latex particles by neutrophils; type: cell-based; details: 40 μM sphinganine, ± S.E.M.
Experimental: Latex particles were opsonized by incubating at 37° C. 1 ml of particles with 0.2 ml of human serum plus 1 ml Tris buffer, pH 8.5. […] The reaction was terminated by the addition of 0.4 ml of ice-cold buffer containing 1 mM EDTA. […] Cells are sedimented, while excess beads remain at the ficoll-saline interface. The number of latex beads internalized per cell was determined by microscopic examination.

Y-1 tumor cell line = assay: ACTH stimulation of steroidogenesis in the Y-1 tumor cell line; type: cell-based; details: unpublished studies
[1] = tested on: phorbol ester receptor of HL-60 cells (protein kinase C); assay: Competition for [3H]phorbol dibutyrate binding by HL-60 cells; design: species or system human; details: 12 nM [3H]phorbol dibutyrate, 1 h at 37°; read-out: 50% inhibition of [3H]phorbol dibutyrate binding
Experimental: Competitive binding assays were conducted as described by Goodwin and Weinberg (J. Clin. Invest, 70, 699-706, 1982 and Ebling et al (ibid.). Approximately 1×10^6 cells/ml were incubated with 12 nM [^3 H]phorbol dibutyrate (8.3 Ci/mmol) and varying concentrations of sphinganine (1:1 with BSA) for 1 h at 37°. The cells were recovered on Millipore filters, washed, and counted. The data were corrected for nonspecific binding by subtracting the cpm obtained in the presence of 300 nM PMA.

[2] = Neutrophil viability (Trypan Blue exclusion, LDH release); type: cell-based; details: human, neutrophils, 50 μM sphinganine, 1.2×10^7 cells/ml
Experimental: Cell viability was assessed by two criteria: Trypan Blue exclusion and release of the cytosolic enzyme, lactate dehydrogenase (LDH). LDH activity was monitored by following the oxidation of NADH at 340 nm. […] Trypan Blue exclusion was determined microscopically.

In the case of `CCCCCCCCCCCCCCC[C@@H](O)[C@@H](N)CO` (relative stereo) [Sphinganine, erythro-dihydrosphingosine], the “ingested latex beads per cell” value (human neutrophils) is reported as 7.2±0.8 beads/cell, the “effect on the ACTH-stimulated steroidogenic rate” value (Y-1 tumor cell line) is reported as “did not affect” and the IC50 [1] is reported as about 15 µM. For the same compound, the viability at 50 µM ([2]; read-out: cellular LDH retained) was over 96% and the viability at 50 µM ([2]; read-out: viability by Trypan Blue exclusion) was over 95%.
